**Q.** Which results are given for `CC(=O)OCC(=O)[C@@]12N=C(C)O[C@@H]1C[C@H]1[C@@H]3CCC4=CC(=O)C=C[C@]4(C)[C@H]3[C@@H](O)C[C@@]12C`?
**A.** solubility (mole fraction) (in acetone, 293.15 K): 0.00618; solubility (mole fraction) (in acetone, 298.15 K): 0.00674; solubility (mole fraction) (in acetone, 303.15 K): 0.00735; solubility (mole fraction) (in acetone, 308.15 K): 0.00797; solubility (mole fraction) (in acetone, 313.15 K): 0.00861; solubility (mole fraction) (in acetone, 318.15 K): 0.00946; solubility (mole fraction) (in acetone, 323.15 K): 0.0104; solubility (mole fraction) (in ethanol, 293.15 K): 0.00167; solubility (mole fraction) (in ethanol, 298.15 K): 0.002; solubility (mole fraction) (in ethanol, 303.15 K): 0.00236; solubility (mole fraction) (in ethanol, 308.15 K): 0.00279; solubility (mole fraction) (in ethanol, 313.15 K): 0.00334; solubility (mole fraction) (in ethanol, 318.15 K): 0.00397; solubility (mole fraction) (in ethanol, 323.15 K): 0.00477; solubility (mole fraction) (in ethanol, 328.15 K): 0.00566; solubility (mole fraction) (in ethanol, 333.15 K): 0.00663; solubility (mole fraction) (in ethanol, 338.15 K): 0.00795; solubility (mole fraction) (in ethanol, 343.15 K): 0.00957; solubility (mole fraction) (in ethyl acetate, 293.15 K): 0.00331; solubility (mole fraction) (in ethyl acetate, 298.15 K): 0.00361; solubility (mole fraction) (in ethyl acetate, 303.15 K): 0.00393; solubility (mole fraction) (in ethyl acetate, 308.15 K): 0.00426; solubility (mole fraction) (in ethyl acetate, 313.15 K): 0.00465; solubility (mole fraction) (in ethyl acetate, 318.15 K): 0.0051; solubility (mole fraction) (in ethyl acetate, 323.15 K): 0.00559; solubility (mole fraction) (in ethyl acetate, 328.15 K): 0.0061; solubility (mole fraction) (in ethyl acetate, 333.15 K): 0.00668; solubility (mole fraction) (in ethyl acetate, 338.15 K): 0.00737; solubility (mole fraction) (in ethyl acetate, 343.15 K): 0.00805; solubility (mole fraction) (in isopropanol, 293.15 K): 0.00127; solubility (mole fraction) (in isopropanol, 298.15 K): 0.00161; solubility (mole fraction) (in isopropanol, 303.15 K): 0.00202; solubility (mole fraction) (in isopropanol, 308.15 K): 0.00249; solubility (mole fraction) (in isopropanol, 313.15 K): 0.00305; solubility (mole fraction) (in isopropanol, 318.15 K): 0.0038; solubility (mole fraction) (in isopropanol, 323.15 K): 0.00456; solubility (mole fraction) (in isopropanol, 328.15 K): 0.00566; solubility (mole fraction) (in isopropanol, 333.15 K): 0.00683; solubility (mole fraction) (in isopropanol, 338.15 K): 0.00813; solubility (mole fraction) (in isopropanol, 343.15 K): 0.00973; solubility (mole fraction) (in isopropanol, 348.15 K): 0.0121

Source: BigSolDB 2.1
